In US10064885B2, “Metabolic gene, enzyme, and flux targets for cancer therapy” (Massachusetts Institute of Technology, priority 2010, dated 2018):

What was measured:
Assay type in all cases: cell-based, human
HCT116 colon carcinoma = assay: Reductive carboxylation by [1-13C]glutamine labeling and GC/MS in HCT116 cells expressing shRNAs
Method: (§1) Cell Culture, Isotopic Labeling, and Hypoxia. All cell lines were cultured in Dulbecco's Modified Eagle Medium (DMEM; Mediatech) containing 10% fetal bovine serum (FBS; Invitrogen) and 100 U/ml penicillin/streptomycin (P/S; Mediatech) unless otherwise mentioned. Cell lines were obtained from ATCC unless otherwise noted. The VC3 glioma cell line was provided by Tim Lautenschlaeger (Ohio State University), MDA-MB-231 and HCT116 cell lines were provided by Ferdinando Chiaradonna (University of Milano-Bicocca), MRC5 cells were provided by Stephen Lippard (MIT), SN12C, ACHN, and 786-O cells were provided by Kevin Courtney and Lew Cantley (Harvard Medical School), and MCF10A cells were provided by Joan Brugge (Harvard Medical School), and Huh7 cells were provided by Mike Hemann (MIT). MCF10A cells were cultured in custom DMEM/F12 (Hyclone) containing 5% horse serum, 20 ng/ml EGF, 10 μg/ml insulin, 100 ng/ml cholera toxin, 0.5 mg/ml hydrocortisone, 100 U/ml penicillin/streptomycin, and labeled/unlabeled glucose and glutamine at 18 mM and 2.5 mM, respectively. PRC3, WT8, pTV, and pTR cell lines were subcloned from the 786-O cell line as previously described (42, 43). For isotopic labeling experiments, cells were cultured in 6 well plates in glucose- and glutamine-free DMEM (Sigma) containing 10% dialyzed FBS (Invitrogen), 100 U/ml P/S, naturally labeled glucose or glutamine, and the appropriate tracer, including [U-^13C5]glutamine (Isotec), [5-^13C]glutamine (C/D/N Isotopes), [1-^13C]glutamine, [U-^13C6]glucose, [1,2-^13C2]glucose (all from Cambridge Isotope Labs). Steady state labeling of organic and amino acids was accomplished by culturing subconfluent cells in tracer medium for 24 hours. […] The internal gas content was monitored using Fyrite gas analyzers (Bacharach) for CO2 and O2. […]
(§2) Metabolite Extraction and Gas Chromatography/Mass Spectrometry (GC/MS) Analysis. […] In some ISA experiments, cells were trypsinized, counted, and pelleted prior to lipid extraction as described above. […]

A549 cells = assay: Reductive glutamine metabolism by isotopic labeling and GC/MS in A549 cells expressing shRNAs; conditions: [1-13C]glutamine
Method: as §1, §2

[1] = tested on: MDA-MB-231 breast carcinoma; assay: Reductive carboxylation by [1-13C]glutamine labeling and GC/MS in MDA-MB-231 cells expressing shRNAs
Method: as §1, §2

## CCGGGTGGACATCCAGCTAAAGTATCTCGAGATACTTTAGCTGGATGTCCACTTT TT (CCGGGTGGACATCCAGCTAAAGTATCTCGAGATACTTTAGCTGGATGTCCACTTTTT; expressed or natural sequence) [IDH2 shRNA, pLKO.1 lentiviral vector shRNA targeting IDH2]
HCT116 colon carcinoma
  reductive carboxylation flux (M1 label from [1-13C]glutamine): does not affect reductive carboxylation flux
A549 cells
  reductive carboxylation (M1 label from [1-13C]glutamine): does not affect reductive carboxylation flux
[1]
  reductive carboxylation flux (M1 label from [1-13C]glutamine): does not affect reductive carboxylation flux
